Where a name gives a salt, the structure may show the parent alone.
What follows are molecules tested against T1, human hNET (Homo sapiens, UniProt P23975) (assay: Functional norepinephrine reuptake assay, Procedure B (6,000 cells/well)). Conditions: not given.
T1 construct: expressed in transfected cells; host or cells: MDCK-Net6 (MDCK cells stably transfected with hNET)
Type: cell-based
Description: For screening, 25 μl aliquots of compound solution at a 1 μM or 10 μM final concentration was delivered directly to cells.
For IC50 determinations, stock compounds were prepared at 10 mM from powder. The stock solution was diluted according to compound testing range. […] On the day of assay, 25 μl of compound solution at the specified concentrations were added to the plates containing cells. A DMSO stock of desipramine was prepared at 10 mM in DMSO and diluted for a final concentration of 20 μM to determine the non-specific reuptake.
MDCK-Net6 cells, stably transfected with human hNET (Pacholczyk, 1991), were maintained in growth media [high glucose DMEM (Gibco Cat. 11995), 10% FBS (dialyzed, heat-inactivated, Sigma, dialysed, heat inactivated, Lot# K0922 or equivalent) 1xPen/Strep, and 500 μg/ml G418 (Gibco Cat. 10131)]. Cells were plated at 300,000/T75 flask and cells split twice weekly.
Cells were plated at 50,000 cells/well (Procedure A) or 6,000 cells/well (Procedure B) on day 1 in BD Falcon Microtest 96-well sterile cell culture plates, Optilux White/Clear Bottom TC plate (VWR; # 62406-466 or equivalent) in growth media and maintained in a cell incubator (37° C., 5% CO2). On Day 2, cells were removed from the cell incubator and the growth media is replaced by 200 μl of assay buffer (25 mm HEPES 120 mM NaCL; 5 mM KCl; 2.5 mM CaCl2; 1.2 mM MgSO4; 2 mg/ml glucose (pH 7.4, 37° C.)) containing 0.2 mg/ml ascorbic acid and 1 μM parglyine. For screening, 25 μl of compound in 4% DMSO was added directly to each well and the plate was incubated for 5 minutes (37° C.). […] The reaction is aspirated from the plate and the cells washed with 250 μl of 50 mM Tris Buffer (4° C.). The plates were left to dry for 1 hour. The cells were lysed using 0.25 M NaOH solution then placed on a shake table and vigorously shaken for 10 minutes. After cell lysis, 100 μl of Microscint 20 (PerkinElmer; #87-051101) was added to the plates and the plates were sealed with film tape and replaced on the shake table for a minimum of 10 minutes. The plates were counted in a TopCount counter (PerkinElmer).
% inhibition=[1−((mean cpm test compound wells−mean cpm non-specific wells)/(mean cpm control wells−mean cpm non-specific wells))]×100
For IC50 determination, raw cpm values were generated in a data file from the TopCount counter. The data was organized using the Microsoft Excel and transferred into PRIZM graphing and statistical program, which calculated the estimated IC50 value. Calculation of IC50 values was made using non-linear regression analysis with a sigmoidal dose response with variable slope. The statistical program used wells containing ^3H norepinephrine only as the maximal NE reuptake determinant and wells containing ^3H norepinephrine plus 20 μM desipramine (AHR-9543) as the minimal NE reuptake determinant (non-specific determinant). Estimation of the IC50 value was completed on a log scale and the line was fit between the maximal and minimal NE reuptake values.

T1 sequence (P23975 whole entry): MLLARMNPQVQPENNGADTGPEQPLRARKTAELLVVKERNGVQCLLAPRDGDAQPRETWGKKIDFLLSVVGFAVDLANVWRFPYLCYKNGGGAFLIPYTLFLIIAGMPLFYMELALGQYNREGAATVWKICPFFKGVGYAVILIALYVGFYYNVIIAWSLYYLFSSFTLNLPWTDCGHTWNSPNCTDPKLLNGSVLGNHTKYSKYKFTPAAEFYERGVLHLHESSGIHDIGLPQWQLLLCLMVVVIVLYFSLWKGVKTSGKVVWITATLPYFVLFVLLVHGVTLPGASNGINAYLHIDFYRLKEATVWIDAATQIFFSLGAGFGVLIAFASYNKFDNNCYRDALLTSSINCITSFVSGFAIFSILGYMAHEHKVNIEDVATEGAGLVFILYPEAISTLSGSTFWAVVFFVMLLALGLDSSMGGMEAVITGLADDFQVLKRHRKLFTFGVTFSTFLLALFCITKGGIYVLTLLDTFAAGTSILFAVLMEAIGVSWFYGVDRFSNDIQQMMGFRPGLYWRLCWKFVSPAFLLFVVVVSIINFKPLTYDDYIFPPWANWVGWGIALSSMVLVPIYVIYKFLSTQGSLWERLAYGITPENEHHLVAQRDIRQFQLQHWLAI

In order of rising IC50:
1. CNCCC[C@@H]1Cc2ccccc2N(c2c(F)cccc2F)S1(=O)=O (single isomer, unassigned) [Example 122]  0.005 µM
2. CNCCC[C@@H]1Cc2cc(F)ccc2N(c2c(F)cccc2F)S1(=O)=O (single isomer, unassigned) [Example 156]  0.027 µM

Same assay, conditions: MDCK-Net6 cells, 6,000 cells/well, 16 nM 3H-norepinephrine; read-out: Procedure B hNET uptake IC50

In order of falling IC50:
1. NCC[C@@H]1Oc2ccccc2N(c2ccccc2)S1(=O)=O (single isomer, unassigned) [Example 103]  3.32 µM
2. CCNCCCC1Oc2ccccc2N(c2ccccc2)S1(=O)=O (stereo not shown) [Example 34, 3-(2,2-dioxido-1-phenyl-1H-4,2,1-benzoxathiazin-3-yl)-N-ethylpropan-1-amine]  2.58 µM
3. CNCCCC1Sc2ccccc2N(c2cccc(Cl)c2)S1(=O)=O (stereo not shown) [Example 66, 3-[1-(3-chlorophenyl)-2,2-dioxido-1H-2,4,1-benzodithiazin-3-yl]-N-methylpropan-1-amine Hydrochloride]  2.02 µM
4. CNCCC[C@H]1Cc2ccccc2N(c2cccnc2)S1(=O)=O (single isomer, unassigned) [Example 124]  1.71 µM
5. CCNCC1Oc2ccccc2N(c2ccccc2)S1(=O)=O (stereo not shown) [Example 136, N-[(2,2-dioxido-1-phenyl-1H-4,2,1-benzoxathiazin-3-yl)methyl]ethanamine]  1.36 µM
6. CNCCCC1Oc2ccccc2N(c2ccc(OC)cc2)S1(=O)=O (stereo not shown) [Example 19, 3-[1-(4-methoxyphenyl)-2,2-dioxido-1H-4,2,1-benzoxathiazin-3-yl]-N-methylpropan-1-amine]  1.2 µM
7. CC1CN(CC2Oc3ccccc3N(c3ccccc3)S2(=O)=O)CC(C)N1 (stereo not shown) [Example 142, 3-[(3,5-dimethylpiperazin-1-yl)methyl]-1-phenyl-1H-4,2,1-benzoxathiazine 2,2-dioxide]  1.15 µM
8. CNCCCC1Oc2cccc(C)c2N(c2ccccc2)S1(=O)=O (stereo not shown) [Example 49, N-methyl-3-(8-methyl-2,2-dioxido-1-phenyl-1H-4,2,1-benzoxathiazin-3-yl)propan-1-amine]  0.9 µM
9. CNCCCC1Oc2ccc(F)cc2N(c2ccccc2)S1(=O)=O (stereo not shown) [Example 44, 3-(7-fluoro-2,2-dioxido-1-phenyl-1H-4,2,1-benzoxathiazin-3-yl)-N-methylpropan-1-amine]  0.875 µM
10. CNCCN(C)CC1Oc2ccccc2N(c2ccccc2)S1(=O)=O (stereo not shown) [Example 139, N-[(2,2-dioxido-1-phenyl-1H-4,2,1-benzoxathiazin-3-yl)methyl]-N,N′-dimethylethane-1,2-diamine]  0.644 µM
11. NCCCC1Oc2ccccc2N(c2ccccc2)S1(=O)=O (stereo not shown) [Example 33, 3-(2,2-dioxido-1-phenyl-1H-4,2,1-benzoxathiazin-3-yl)propan-1-amine]  0.597 µM
12. CNCC[C@@H]1Oc2cc(F)ccc2N(c2ccccc2)S1(=O)=O (single isomer, unassigned) [Example 119]  0.494 µM
13. CNCCCC1Oc2ccc(-c3ccccc3)cc2N(c2ccccc2)S1(=O)=O (stereo not shown) [Example 54, 3-(2,2-dioxido-1,7-diphenyl-1H-4,2,1-benzoxathiazin-3-yl)-N-methylpropan-1-amine]  0.407 µM
14. CNCCCC1Oc2ccccc2N(c2cccc(OC)c2)S1(=O)=O (stereo not shown) [Example 18, 3-[1-(3-methoxyphenyl)-2,2-dioxido-1H-4,2,1-benzoxathiazin-3-yl]-N-methylpropan-1-amine]  0.353 µM
15. CNCCCC1Sc2ccccc2N(c2cccc(OC)c2)S1(=O)=O (stereo not shown) [Example 62, 3-[1-(3-methoxyphenyl)-2,2-dioxido-1H-2,4,1-benzodithiazin-3-yl]-N-methylpropan-1-amine Hydrochloride]  0.338 µM
16. CNCCC[C@@H]1Cc2cc(F)ccc2N(c2ccc(F)cc2C)S1(=O)=O (single isomer, unassigned) [Example 171]  0.322 µM
17. CNCCCC1Cc2ccccc2N(c2cccnc2)S1(=O)=O (racemic) [Example 123, 3-(2,2-dioxido-1-pyridin-3-yl-3,4-dihydro-1H-2,1-benzothiazin-3-yl)-N-methylpropan-1-amine]  0.256 µM
18. CNCCCC1Oc2cc(C)ccc2N(c2ccccc2)S1(=O)=O (stereo not shown) [Example 51, N-methyl-3-(6-methyl-2,2-dioxido-1-phenyl-1H-4,2,1-benzoxathiazin-3-yl)propan-1-amine]  0.249 µM
19. O=S1(=O)C(CN2CC3CC2CN3)Oc2ccccc2N1c1ccccc1 (stereo not shown) [Example 143, 3-(2,5-diazabicyclo[2.2.1]hept-2-ylmethyl)-1-phenyl-1H-4,2,1-benzoxathiazine 2,2-dioxide]  0.231 µM
20. CNCCCC1Oc2ccc(Cl)cc2N(c2ccccc2)S1(=O)=O (stereo not shown) [Example 53, 3-(7-chloro-2,2-dioxido-1-phenyl-1H-4,2,1-benzoxathiazin-3-yl)-N-methylpropan-1-amine]  0.187 µM
21. CNCCC[C@H]1Cc2cc(F)ccc2N(c2ccccc2C)S1(=O)=O (single isomer, unassigned) [Example 161]  0.143 µM
22. CNCCC[C@H]1Oc2cc(F)ccc2N(c2ccccc2)S1(=O)=O (single isomer, unassigned) [Example 106]  0.097 µM
23. CNCCCC1Cc2cc(F)ccc2N(c2ccc(F)cc2C)S1(=O)=O (racemic) [Example 169, 3-[6-fluoro-1-(4-fluoro-2-methylphenyl)-2,2-dioxido-3,4-dihydro-1H-2,1-benzothiazin-3-yl]-N-methylpropan-1-amine]  0.096 µM
24. CNCCCC1Oc2cc(F)ccc2N(c2ccccc2F)S1(=O)=O (stereo not shown) [Example 129, 3-[6-fluoro-1-(2-fluorophenyl)-2,2-dioxido-1H-4,2,1-benzoxathiazin-3-yl]-N-methylpropan-1-amine hydrochloride]  0.095 µM
25. CNCCC[C@@H]1Oc2cc(F)ccc2N(c2ccccc2)S1(=O)=O (single isomer, unassigned) [Example 107]  0.074 µM
26. CNCCC[C@H]1Cc2cc(F)ccc2N(c2cccc(F)c2F)S1(=O)=O (single isomer, unassigned) [Example 146]  0.066 µM
27. CNCCC[C@@H]1Cc2cc(F)ccc2N(c2cccc(F)c2F)S1(=O)=O (single isomer, unassigned) [Example 147]  0.034 µM
28. CNCCCC1Cc2ccccc2N(c2ccccc2F)S1(=O)=O (stereo not shown) [Example 73, 3-[1-(2-fluorophenyl)-2,2-dioxido-3,4-dihydro-1H-2,1-benzothiazin-3-yl]-N-methylpropan-1-amine Hydrochloride]  0.0177 µM
29. CNCCCC1Cc2ccccc2N(c2c(F)cccc2F)S1(=O)=O (racemic) [Example 120, 3-[1-(2,6-difluorophenyl)-2,2-dioxido-3,4-dihydro-1H-2,1-benzothiazin-3-yl]-N-methylpropan-1-amine]  0.01 µM

Same assay, conditions: MDCK-Net6 cells, 6,000 cells/well; Conc 6000 nM (6 μM); read-out: Procedure B hNET uptake (% inhibition)

In order of rising inhibition at 6 µM:
1. O=S1(=O)C(CCN2CCCCC2)Oc2ccccc2N1c1ccccc1 (stereo not shown) [Example 78, 1-phenyl-3-(2-piperidin-1-ylethyl)-1H-4,2,1-benzoxathiazine 2,2-dioxide hydrochloride]  45%
2. CNCC1Oc2ccccc2N(c2ccccc2)S1(=O)=O (stereo not shown) [Example 144, 1-(2,2-dioxido-1-phenyl-1H-4,2,1-benzoxathiazin-3-yl)-N-methylmethanamine]  53%
3. CC(C)CNCCCC1Oc2ccccc2N(c2ccccc2)S1(=O)=O (stereo not shown) [Example 38, N-[3-(2,2-dioxido-1-phenyl-1H-4,2,1-benzoxathiazin-3-yl)propyl]-2-methylpropan-1-amine]  63%

Source: patent US20080171737A1 (Wyeth, priority 2006, published 2008)
